Results reported in patent US9980943B2, “Methods of treating muscular dystrophy” (BOARD OF REGENTS OF THE NEVADA SYSTEM OF HIGHER EDUCATION, …, priority 2013, dated 2018).
Like-named read-outs stand apart in the source and are kept apart here.

Key:
Type in all cases: cell-based, mouse
[1] = test system: α7 integrin (LacZ reporter in α7βgal+/− myoblasts); test: Myoblast α7+/LacZ integrin FDG assay (Burkin assay in myoblasts, 96-well); conditions: α7+/LacZ myoblasts, 96-well; for fold induction at 0.5 µM / fold induction at 1 µM / fold induction at 5 µM / fold induction at 10 µM / fold induction at 20 µM / fold induction at 40 µM: Mus musculus, Myoblast, 48 h
[2] = test system: α7 integrin (LacZ reporter in α7+/LacZ myotubes); test: Myotube α7 integrin FDG assay (Burkin assay in myotubes, 96-well); conditions: myotubes; for fold induction at 0.5 µM / fold induction at 1 µM / fold induction at 5 µM / fold induction at 10 µM / fold induction at 20 µM / fold induction at 40 µM: Mus musculus, Myotube
[3] = test system: β-galactosidase in CMV-LacZ C2C12 myotubes; test: CMV-LacZ secondary screen in C2C12 myotubes (β-Gal stabilizing assay); conditions: for CMV-LACZ in Myotubes (β-galactosidase activity relative to DMSO): CMV-LacZ C2C12 myotubes, 96-well format
How it was run: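 β-gal stabilization was measured in C2C12 myoblasts or myotubes stably transfected with a CMV-driven LacZ construct, using the FDG β-gal assay. Compounds were tested in dose-response at 0.5, 1, 5, 10, 20 and 40 μM, with two replicates per point.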

[4] = 5 uM, C2C12 CMV-LacZ myotubes, fold relative to DMSO
[5] = 10 uM, C2C12 CMV-LacZ myotubes, fold relative to DMSO
[6] = 20 uM, C2C12 CMV-LacZ myotubes, fold relative to DMSO
[7] = 40 uM, C2C12 CMV-LacZ myotubes, fold relative to DMSO

| Structure (SMILES) | Burkin Assay in Myoblasts, signal relative to DMSO ([1]; 0.5 uM) | Burkin Assay in Myoblasts, signal relative to DMSO ([1]; 1 uM) | Burkin Assay in Myoblasts, signal relative to DMSO ([1]; 5 uM) | Burkin Assay in Myoblasts, signal relative to DMSO ([1]; 10 uM) | Burkin Assay in Myoblasts, signal relative to DMSO ([1]; 20 uM) | Burkin Assay in Myoblasts, signal relative to DMSO ([1]; 40 uM) | Burkin Assay in Myotubes, α7 integrin LacZ reporter signal relative to DMSO ([2]; 0.5 uM) | Burkin Assay in Myotubes, α7 integrin LacZ reporter signal relative to DMSO ([2]; 1 uM) | Burkin Assay in Myotubes, α7 integrin LacZ reporter signal relative to DMSO ([2]; 5 uM) | Burkin Assay in Myotubes, α7 integrin LacZ reporter signal relative to DMSO ([2]; 10 uM) | Burkin Assay in Myotubes, α7 integrin LacZ reporter signal relative to DMSO ([2]; 20 uM) | Burkin Assay in Myotubes, α7 integrin LacZ reporter signal relative to DMSO ([2]; 40 uM) | CMV-LACZ in Myotubes, signal relative to DMSO [3, 4] | CMV-LACZ in Myotubes, signal relative to DMSO [3, 5] | CMV-LACZ in Myotubes, signal relative to DMSO [3, 6] | CMV-LACZ in Myotubes, signal relative to DMSO [3, 7] | further results |
| --- | --- | --- | --- | --- | --- | --- | --- | --- | --- | --- | --- | --- | --- | --- | --- | --- | --- |
| CNc1cc([N+](=O)[O-])ccc1OCc1ccccc1 [MLS000737204-01] | 0.9011 | 0.9816 | 0.9164 | 0.9336 | 0.8731 | 0.7472 | 1.043 | 1.173 | 1.0331 | 1.12 | 0.8815 | 0.6682 | 1.029 | 0.8068 | 0.5772 | 0.3807 |  |
| CCCOc1nc(SCCC)nc2c1cnn2-c1ccccc1 [MLS000737953-01] | 0.9 | 0.9673 | 1.003 | 1.08 | 1.149 | 1.233 | 0.9665 | 1.135 | 1.241 | 1.226 | 1.007 | 0.5339 | 0.8274 | 1.224 | 0.9478 | 0.9096 |  |
| C[C@H](NS(=O)(=O)c1ccc(Cl)cc1)C(=O)OCC(=O)c1ccc[nH]1 [MLS000761297-01] |  |  |  |  |  |  |  |  |  |  |  |  |  |  |  |  | Burkin Assay in Myoblasts, value relative to DMSO ([1]; 0.5 uM): 1.0693; Burkin Assay in Myoblasts, value relative to DMSO ([1]; 1 uM): 1.071; Burkin Assay in Myoblasts, value relative to DMSO ([1]; 5 uM): 1.121; Burkin Assay in Myoblasts, value relative to DMSO ([1]; 10 uM): 1.055; Burkin Assay in Myoblasts, value relative to DMSO ([1]; 20 uM): 1.072; Burkin Assay in Myoblasts, value relative to DMSO ([1]; 40 uM): 0.9526; Burkin Assay in Myotubes (signal relative to DMSO) ([2]; 0.5 uM): 1.0906; Burkin Assay in Myotubes (signal relative to DMSO) ([2]; 1 uM): 1.022; Burkin Assay in Myotubes (signal relative to DMSO) ([2]; 5 uM): 1.154; Burkin Assay in Myotubes (signal relative to DMSO) ([2]; 10 uM): 1.033; Burkin Assay in Myotubes (signal relative to DMSO) ([2]; 20 uM): 1.045; Burkin Assay in Myotubes (signal relative to DMSO) ([2]; 40 uM): 1.093; CMV-LACZ in Myotubes (β-galactosidase activity relative to DMSO) ([3]; 5 uM): 0.9911; CMV-LACZ in Myotubes (β-galactosidase activity relative to DMSO) ([3]; 10 uM): 0.8106; CMV-LACZ in Myotubes (β-galactosidase activity relative to DMSO) ([3]; 20 uM): 0.993; CMV-LACZ in Myotubes (β-galactosidase activity relative to DMSO) ([3]; 40 uM): 0.8829 |
| Nc1nccc(-c2ccc(-n3cnc4ccccc43)cc2)n1 [MLS000763405-01] |  |  |  |  |  |  |  |  |  |  |  |  |  |  |  |  | fold induction at 0.5 µM ([1]; 0.5 uM, read-out: Burkin Assay in Myoblasts, signal relative to DMSO): 0.961; fold induction at 1 µM ([1]; 1 uM, read-out: Burkin Assay in Myoblasts, signal relative to DMSO): 1.03; fold induction at 5 µM ([1]; 5 uM, read-out: Burkin Assay in Myoblasts, signal relative to DMSO): 1.46; fold induction at 10 µM ([1]; 10 uM, read-out: Burkin Assay in Myoblasts, signal relative to DMSO): 1.53; fold induction at 20 µM ([1]; 20 uM, read-out: Burkin Assay in Myoblasts, signal relative to DMSO): 1.47; fold induction at 40 µM ([1]; 40 uM, read-out: Burkin Assay in Myoblasts, signal relative to DMSO): 1.08; fold induction at 0.5 µM ([2]; 0.5 uM, read-out: Burkin Assay in Myotubes, α7 integrin LacZ reporter signal relative to DMSO): 1.03; fold induction at 1 µM ([2]; 1 uM, read-out: Burkin Assay in Myotubes, α7 integrin LacZ reporter signal relative to DMSO): 1.14; fold induction at 5 µM ([2]; 5 uM, read-out: Burkin Assay in Myotubes, α7 integrin LacZ reporter signal relative to DMSO): 1.21; fold induction at 10 µM ([2]; 10 uM, read-out: Burkin Assay in Myotubes, α7 integrin LacZ reporter signal relative to DMSO): 1.11; fold induction at 20 µM ([2]; 20 uM, read-out: Burkin Assay in Myotubes, α7 integrin LacZ reporter signal relative to DMSO): 1.45; fold induction at 40 µM ([2]; 40 uM, read-out: Burkin Assay in Myotubes, α7 integrin LacZ reporter signal relative to DMSO): 1.38; fold induction at 5 µM ([3]; Mus musculus, C2C12, read-out: CMV-LACZ in Myotubes, signal relative to DMSO, 5 uM, C2C12 CMV-LacZ myotubes, fold relative to DMSO): 1.05; fold induction at 10 µM ([3]; Mus musculus, C2C12, read-out: CMV-LACZ in Myotubes, signal relative to DMSO, 10 uM, C2C12 CMV-LacZ myotubes, fold relative to DMSO): 0.876; fold induction at 20 µM ([3]; Mus musculus, C2C12, read-out: CMV-LACZ in Myotubes, signal relative to DMSO, 20 uM, C2C12 CMV-LacZ myotubes, fold relative to DMSO): 0.824; fold induction at 40 µM ([3]; Mus musculus, C2C12, read-out: CMV-LACZ in Myotubes, signal relative to DMSO, 40 uM, C2C12 CMV-LacZ myotubes, fold relative to DMSO): 0.802 |
| CC(=O)c1cccc(NC(=O)C(=O)Nc2cccc3ccccc23)c1 [MLS000765108-01] |  |  |  |  |  |  |  |  |  |  |  |  |  |  |  |  | fold induction at 0.5 µM ([1]; 0.5 uM, read-out: Burkin Assay in Myoblasts, value relative to DMSO): 1.17; fold induction at 1 µM ([1]; 1 uM, read-out: Burkin Assay in Myoblasts, value relative to DMSO): 1.12; fold induction at 5 µM ([1]; 5 uM, read-out: Burkin Assay in Myoblasts, value relative to DMSO): 1.2; fold induction at 10 µM ([1]; 10 uM, read-out: Burkin Assay in Myoblasts, value relative to DMSO): 1.11; fold induction at 20 µM ([1]; 20 uM, read-out: Burkin Assay in Myoblasts, value relative to DMSO): 1.04; fold induction at 40 µM ([1]; 40 uM, read-out: Burkin Assay in Myoblasts, value relative to DMSO): 1.03; fold induction at 0.5 µM ([2]; 0.5 uM, read-out: Burkin Assay in Myotubes (signal relative to DMSO)): 0.872; fold induction at 1 µM ([2]; 1 uM, read-out: Burkin Assay in Myotubes (signal relative to DMSO)): 1.02; fold induction at 5 µM ([2]; 5 uM, read-out: Burkin Assay in Myotubes (signal relative to DMSO)): 1.06; fold induction at 10 µM ([2]; 10 uM, read-out: Burkin Assay in Myotubes (signal relative to DMSO)): 0.609; fold induction at 20 µM ([2]; 20 uM, read-out: Burkin Assay in Myotubes (signal relative to DMSO)): 0.922; fold induction at 40 µM ([2]; 40 uM, read-out: Burkin Assay in Myotubes (signal relative to DMSO)): 0.707; CMV-LACZ in Myotubes (β-galactosidase activity relative to DMSO) ([3]; 5 uM): 1.177; CMV-LACZ in Myotubes (β-galactosidase activity relative to DMSO) ([3]; 10 uM): 1.099; CMV-LACZ in Myotubes (β-galactosidase activity relative to DMSO) ([3]; 20 uM): 0.9927; CMV-LACZ in Myotubes (β-galactosidase activity relative to DMSO) ([3]; 40 uM): 0.97 |
| COC(=O)C1=NNC2(C)C(=O)N(c3ccc(C)cc3)C(=O)C12 (stereo not shown) [MLS000767227-01] | 1.025 | 0.8073 | 0.8577 | 0.9107 | 0.9133 | 0.9283 | 0.8593 | 0.8998 | 0.9645 | 0.844 | 0.7775 | 0.9434 | 1.024 | 1.1 | 0.9975 | 1.1815 |  |
| CCCCCCC1CC(=O)NC(=O)N1 (stereo not shown) [MLS000768008-01] | 0.9886 | 0.9618 | 0.8976 | 0.8768 | 0.7837 | 0.8787 | 1.073 | 1.179 | 1.11 | 1.273 | 1.098 | 1.2867 | 0.8276 | 0.9644 | 1.028 | 0.9429 |  |
